According to the supplement of paper PMC10307832:

Assays:
Experiment in all cases: relative viability (nuclei count vs DMSO), 5 days (fraction); higher = more cells survive
IDH-C35 + Pemetrexed = compound: Cc1ccccc1C(C(=O)NC1CCCCC1)N(C(=O)Cn1ccnc1C)c1cccc(F)c1 [IDH-C35] + Nc1nc2[nH]cc(CCc3ccc(C(=O)N[C@@H](CCC(=O)O)C(=O)O)cc3)c2c(=O)[nH]1 [Pemetrexed] (partner 0.2 µM)
Procedure, shortened: (§1)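 Relative viability equals treated-well nuclei counts divided by vehicle-well nuclei counts. Counts came from 4× images of lung cancer cell lines grown in 1536-well plates for 5 days after pin-tool dosing on the day after seeding. Dosing used one drug alone or a fixed anchor-drug dose plus five library-drug doses (not always all listed) in √10 steps, and values are medians of duplicate plates.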

[1] = compound: CC1=C(C(=NN1)C)CC2=C(C3=C(S2)N(C(=O)N(C3=O)C)CC(C)C)C(=O)N4C[C@@H](CO4)O + Cc1nc(Nc2ncc(C(=O)Nc3c(C)cccc3Cl)s2)cc(N2CCN(CCO)CC2)n1 [Dasatinib] (partner 0.075 µM)
Procedure, shortened: as §1

IDH-C35 + Bortezomib = compound: Cc1ccccc1C(C(=O)NC1CCCCC1)N(C(=O)Cn1ccnc1C)c1cccc(F)c1 [IDH-C35] + CC(C)C[C@H](NC(=O)[C@H](Cc1ccccc1)NC(=O)c1cnccn1)B(O)O [Bortezomib] (partner 0.002 µM)
Procedure, shortened: as §1

IDH-C35 + Tozasertib = compound: Cc1ccccc1C(C(=O)NC1CCCCC1)N(C(=O)Cn1ccnc1C)c1cccc(F)c1 [IDH-C35] + Cc1cc(Nc2cc(N3CCN(C)CC3)nc(Sc3ccc(NC(=O)C4CC4)cc3)n2)n[nH]1 [Tozasertib] (partner 0.1 µM)
Procedure, shortened: as §1

Cell Line	relative viability (IDH-C35 + Pemetrexed; first compound 0.08 µM)	relative viability (IDH-C35 + Pemetrexed; first compound 0.253 µM)	relative viability (IDH-C35 + Pemetrexed; first compound 0.8 µM)	relative viability (IDH-C35 + Pemetrexed; first compound 2.53 µM)	relative viability (IDH-C35 + Pemetrexed; first compound 8 µM)	relative viability ([1]; first compound 0.0025 µM)	relative viability ([1]; first compound 0.007906 µM)	relative viability ([1]; first compound 0.025 µM)	relative viability ([1]; first compound 0.07906 µM)	relative viability ([1]; first compound 0.25 µM)	relative viability (IDH-C35 + Bortezomib; first compound 0.08 µM)	relative viability (IDH-C35 + Bortezomib; first compound 0.253 µM)	relative viability (IDH-C35 + Bortezomib; first compound 0.8 µM)	relative viability (IDH-C35 + Bortezomib; first compound 2.53 µM)	relative viability (IDH-C35 + Bortezomib; first compound 8 µM)	relative viability (IDH-C35 + Tozasertib; first compound 0.08 µM)	relative viability (IDH-C35 + Tozasertib; first compound 0.253 µM)	relative viability (IDH-C35 + Tozasertib; first compound 0.8 µM)	relative viability (IDH-C35 + Tozasertib; first compound 8 µM)	relative viability (IDH-C35 + Tozasertib; first compound 2.53 µM)
HCC-366	0.143	0.156	0.171	0.188	0.176	0.601	0.813	0.836	0.635	0.789	1.07	1.01	1.06	0.987	0.979	0.109	0.128	0.179	0.0826	–
HCC-827	0.279	0.266	0.269	0.248	0.238	0.288	0.317	0.32	0.203	0.24	1.07	1.02	1.07	1.08	1.01	0.4	0.394	0.388	0.433	0.428
HOP-62	0.302	0.309	0.255	0.338	0.346	0.672	0.852	0.74	0.466	0.559	0.725	0.77	0.73	–	0.798	0.394	0.368	0.334	0.331	0.382
IA-LM	–	–	–	–	–	–	–	–	–	–	0.855	0.87	0.844	0.924	0.769	–	–	–	–	–
LC-2-ad	0.265	0.285	0.275	0.266	0.278	0.726	0.474	0.626	0.545	0.588	1.01	1.03	1.01	1.04	0.935	0.472	0.435	0.503	0.428	–
LK-2	0.259	0.322	0.255	0.22	0.202	0.231	0.296	0.308	0.253	0.275	–	–	–	–	–	0.157	0.197	0.178	0.203	0.184
NCI-H358	0.168	0.179	0.175	0.184	0.172	0.18	0.198	0.166	0.162	0.15	–	–	–	–	–	0.099	0.112	0.112	0.0934	0.0888
NCI-H522	0.874	1.04	0.818	0.793	1.05	0.971	0.97	0.763	0.649	0.662	–	–	–	–	–	0.545	0.543	0.589	0.611	0.581
NCI-H727	–	–	–	–	–	0.293	0.416	0.501	0.292	0.396	0.891	0.896	0.801	0.782	0.94	0.49	0.61	0.647	0.558	0.606
NCI-H1299	–	–	–	–	–	–	–	–	–	–	1.02	1.01	1.03	0.964	1.03	–	–	–	–	–
NCI-H1395	0.869	0.882	0.866	0.989	0.925	0.412	0.412	0.352	0.32	0.335	–	–	–	–	–	0.723	0.831	0.735	0.774	0.728
NCI-H1563	0.827	0.803	0.652	0.854	0.613	0.503	0.439	0.418	0.404	0.491	0.854	0.937	0.844	0.909	0.757	–	–	–	–	–
NCI-H1623	–	–	–	–	–	0.505	0.513	0.549	0.442	0.453	–	–	–	–	–	0.414	0.423	0.464	0.431	0.452
NCI-H1648	–	0.758	0.712	0.807	0.529	–	–	–	–	–	–	–	–	–	–	0.567	0.499	0.511	0.541	0.525
NCI-H1703	–	–	–	–	–	–	–	–	–	–	0.326	0.346	0.422	0.43	0.261	–	–	–	–	–
NCI-H1792	1.03	0.711	0.721	0.899	0.919	0.836	0.947	0.813	0.569	0.687	0.921	0.906	0.95	0.909	0.983	–	–	–	–	–
NCI-H1793	0.759	0.783	0.804	1.04	0.854	0.428	0.375	0.39	0.362	0.377	–	–	–	–	–	0.353	0.415	0.329	0.296	–
NCI-H1944	0.591	0.67	0.562	0.612	0.568	0.238	0.253	0.235	0.234	0.221	–	–	–	–	–	0.249	0.248	0.246	0.265	0.253
NCI-H2170	0.277	0.341	0.265	0.267	0.262	0.56	0.592	0.589	0.412	0.552	–	–	–	–	–	0.781	0.724	0.678	0.693	0.728
NCI-H2342	0.78	0.742	0.775	0.768	0.679	0.297	0.348	0.283	0.322	0.352	–	–	–	–	–	0.482	0.54	0.483	0.442	0.494
SK-MES-1	0.91	0.988	0.925	0.861	0.874	0.389	0.367	0.371	0.337	0.314	–	–	–	–	–	0.927	0.86	0.88	0.761	0.863
SW 900	0.51	0.459	–	0.506	0.485	0.768	0.696	0.614	0.476	0.559	–	–	–	–	–	0.51	0.645	0.585	0.508	0.615
